# Patent US20210300936A1, “PYRAZOLOTRIAZOLOPYRIMIDINE DERIVATIVES AS A2A RECEPTOR ANTAGONIST” (BEIGENE, LTD., priority 2018, published 2021)
# Target: human A2A receptor (A2AR) (Homo sapiens, UniProt P29274)
# Experiment: Luciferase reporter assay (HEK293-A2AR-luc2p/CRE/Hygro cells, 3 nM CGS21680)
# Type: cell-based
# Details: 3 nM CGS21680, 5 h incubation
# Method in brief: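 HEK293 cells stably expressing A2AR with a CRE-luc2P reporter were seeded in 1% FBS with 1 U/mL adenosine deaminase. After 18 h, cells got 3 nM CGS21680 plus antagonist at 0.1–10000 nM for 5 h, followed by a luciferase readout. IC50 is relative to the 3 nM CGS21680 signal, set as 100%.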
# human A2A receptor (A2AR), sequence (P29274 whole entry): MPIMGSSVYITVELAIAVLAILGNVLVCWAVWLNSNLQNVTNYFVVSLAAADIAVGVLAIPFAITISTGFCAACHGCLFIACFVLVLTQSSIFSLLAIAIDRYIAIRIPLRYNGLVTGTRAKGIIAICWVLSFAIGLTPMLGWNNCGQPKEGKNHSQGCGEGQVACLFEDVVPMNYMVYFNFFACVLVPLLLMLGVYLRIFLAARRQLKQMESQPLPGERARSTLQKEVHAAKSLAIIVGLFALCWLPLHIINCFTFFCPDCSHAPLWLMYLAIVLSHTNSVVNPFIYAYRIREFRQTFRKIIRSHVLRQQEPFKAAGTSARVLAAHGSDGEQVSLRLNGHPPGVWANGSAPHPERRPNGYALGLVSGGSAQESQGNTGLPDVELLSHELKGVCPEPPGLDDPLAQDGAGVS
row,Compound,IC50 [nM]
1,"COCCOc1ccc(N2CCN(C(=O)C(C)(c3ccccc3)n3ncc4c3nc(N)n3nc(-c5ccco5)nc43)CC2)cc1 (stereo not drawn) [Compound A63, 2-(5-amino-2-(furan-2-yl)-7H-pyrazolo[4,3-e][1,2,4]triazolo[1,5-c]pyrimidin-7-yl)-1-(4-(4-(2-methoxyethoxy)phenyl)piperazin-1-yl)-2-phenylpropan-1-one]",6.2
2,"CN1CCN(CCCOc2ccc(N3CCN(C(=O)C(C)(c4ccccc4)n4ncc5c4nc(N)n4nc(-c6ccco6)nc54)CC3)cc2)CC1 (stereo not drawn) [Compound A82, 2-(5-amino-2-(furan-2-yl)-7H-pyrazolo[4,3-e][1,2,4]triazolo[1,5-c]pyrimidin-7-yl)-1-(4-(4-(3-(4-methylpiperazin-1-yl)propoxy)phenyl)piperazin-1-yl)-2-phenylpropan-1-one]",7.1
3,"CNCCOc1ccc(N2CCN(C(=O)C(C)n3cc4c(nc(N)n5nc(-c6ccco6)nc45)n3)CC2)cc1 (stereo not drawn) [Compound C24, 2-(5-amino-2-(furan-2-yl)-8H-pyrazolo[4,3-e][1,2,4]triazolo[1,5-c]pyrimidin-8-yl)-1-(4-(4-(2-(methylamino)ethoxy)phenyl)piperazin-1-yl)propan-1-one]",35.5
4,"CC(C(=O)N1CCN(c2ccc(OCCN)cc2)CC1)n1cc2c(nc(N)n3nc(-c4ccco4)nc23)n1 (stereo not drawn) [Compound C13, 2-(5-amino-2-(furan-2-yl)-8H-pyrazolo[4,3-e][1,2,4]triazolo[1,5-c]pyrimidin-8-yl)-1-(4-(4-(2-aminoethoxy)phenyl)piperazin-1-yl)propan-1-one]",12.7
5,"COCCOc1cc(F)c(N2CCN(C(=O)[C@](C)(c3ccccc3)n3ncc4c3nc(N)n3nc(-c5ccco5)nc43)CC2)cc1F [Compound A65a, (S)-2-(5-amino-2-(furan-2-yl)-7H-pyrazolo[4,3-e][1,2,4]triazolo[1,5-c]pyrimidin-7-yl)-1-(4-(2,5-difluoro-4-(2-methoxyethoxy)phenyl)piperazin-1-yl)-2-phenylpropan-1-one]",21.4
6,"COCCOCCOc1ccc(N2CCN(C(=O)C(C3CC3)n3cc4c(nc(N)n5nc(-c6ccco6)nc45)n3)CC2)cc1 (stereo not drawn) [Compound C22, 2-(5-amino-2-(furan-2-yl)-8H-pyrazolo[4,3-e][1,2,4]triazolo[1,5-c]pyrimidin-8-yl)-2-cyclopropyl-1-(4-(4-(2-(2-methoxyethoxy)ethoxy)phenyl)piperazin-1-yl)ethan-1-one]",12.8
7,"COCCOc1ccc(N2CCN(C(=O)C(C)(c3ccccc3)n3cc4c(nc(N)n5nc(-c6ccco6)nc45)n3)CC2)cc1 (single isomer, unassigned) [Compound C25b]",21.2
8,"COCCOc1ccc(N2CCN(C(=O)C(c3ccc(C(F)(F)F)cc3)n3ncc4c3nc(N)n3nc(-c5ccco5)nc43)CC2)cc1 (stereo not drawn) [Compound A34, 2-(5-amino-2-(furan-2-yl)-7H-pyrazolo[4,3-e][1,2,4]triazolo[1,5-c]pyrimidin-7-yl)-1-(4-(4-(2-methoxyethoxy)phenyl)piperazin-1-yl)-2-(4-(trifluoromethyl)phenyl)ethan-1-one]",75.7
9,"CC(C(=O)N1CC2(COC2)C1)(c1ccccc1)n1ncc2c1nc(N)n1nc(-c3ccco3)nc21 (stereo not drawn) [Compound B22, 2-(5-amino-2-(furan-2-yl)-7H-pyrazolo[4,3-e][1,2,4]triazolo[1,5-c]pyrimidin-7-yl)-2-phenyl-1-(2-oxa-6-azaspiro[3.3]heptan-6-yl)propan-1-one]",16
10,"CC(C(=O)N1CCN(c2ccc(OCCCN3CCCC3)cc2)CC1)(c1ccccc1)n1ncc2c1nc(N)n1nc(-c3ccco3)nc21 (stereo not drawn) [Compound A79, 2-(5-amino-2-(furan-2-yl)-7H-pyrazolo[4,3-e][1,2,4]triazolo[1,5-c]pyrimidin-7-yl)-2-phenyl-1-(4-(4-(3-(pyrrolidin-1-yl)propoxy)phenyl)piperazin-1-yl)propan-1-one]",7.1
11,"COc1ccc(N2CCN(C(=O)C(C)(c3ccccc3)n3ncc4c3nc(N)n3nc(-c5ccco5)nc43)CC2)c(OC)c1 (stereo not drawn) [Compound A105, 2-(5-amino-2-(furan-2-yl)-7H-pyrazolo[4,3-e][1,2,4]triazolo[1,5-c]pyrimidin-7-yl)-1-(4-(2,4-dimethoxyphenyl)piperazin-1-yl)-2-phenylpropan-1-one]",10.3
12,"COCCOc1ccc(N2CCN(C(=O)C(c3ccc(F)cc3)n3ncc4c3nc(N)n3nc(-c5ccco5)nc43)CC2)cc1 (stereo not drawn) [Compound A28, 2-(5-amino-2-(furan-2-yl)-7H-pyrazolo[4,3-e][1,2,4]triazolo[1,5-c]pyrimidin-7-yl)-2-(4-fluorophenyl)-1-(4-(4-(2-methoxyethoxy)phenyl)piperazin-1-yl)ethan-1-one]",7.6
13,"CC(C(=O)N1CCC[C@@H](O)C1)(c1ccccc1)n1ncc2c1nc(N)n1nc(-c3ccco3)nc21 (stereo partly drawn) [Compound B32, 2-(5-amino-2-(furan-2-yl)-7H-pyrazolo[4,3-e][1,2,4]triazolo[1,5-c]pyrimidin-7-yl)-1-((R)-3-hydroxypiperidin-1-yl)-2-phenylpropan-1-one]",111
14,"Nc1nc2c(cnn2C(C(=O)N2CCc3cc(F)ccc3C2)c2ccccc2)c2nc(-c3ccco3)nn12 (single isomer, unassigned) [Compound B7a]",29.1
15,"C[C@@](C(=O)N1CCN(c2ccc(F)cc2)CC1)(c1ccccc1)n1ncc2c1nc(N)n1nc(-c3ccco3)nc21 [Compound A70a, (S)-2-(5-amino-2-(furan-2-yl)-7H-pyrazolo[4,3-e][1,2,4]triazolo[1,5-c]pyrimidin-7-yl)-1-(4-(4-fluorophenyl)piperazin-1-yl)-2-phenylpropan-1-one]",10.1
16,"COCCOc1ccc(N2CCN(C(=O)C(C)(c3ccccc3)n3ncc4c3nc(N)n3nc(-c5nccnc5C)nc43)CC2)cc1 (stereo not drawn) [Compound A95, 2-(5-amino-2-(3-methylpyrazin-2-yl)-7H-pyrazolo[4,3-e][1,2,4]triazolo[1,5-c]pyrimidin-7-yl)-1-(4-(4-(2-methoxyethoxy)phenyl)piperazin-1-yl)-2-phenylpropan-1-one]",31.1
17,"COc1ccccc1N1CCN(C(=O)C(C)(c2ccccc2)n2ncc3c2nc(N)n2nc(-c4ccco4)nc32)CC1 (stereo not drawn) [Compound A78, 2-(5-amino-2-(furan-2-yl)-7H-pyrazolo[4,3-e][1,2,4]triazolo[1,5-c]pyrimidin-7-yl)-1-(4-(2-methoxyphenyl)piperazin-1-yl)-2-phenylpropan-1-one]",6.2
18,"CNCCOc1ccc(N2CCN(C(=O)C(C)n3ncc4c3nc(N)n3nc(-c5ccco5)nc43)CC2)cc1 (stereo not drawn) [Compound A30, 2-(5-amino-2-(furan-2-yl)-7H-pyrazolo[4,3-e][1,2,4]triazolo[1,5-c]pyrimidin-7-yl)-1-(4-(4-(2-(methylamino)ethoxy)phenyl)piperazin-1-yl)propan-1-one]",22
19,"C[C@](C(=O)N1CCN(c2ccc(OCCCN3CCCC3)cc2)CC1)(c1ccccc1)n1ncc2c1nc(N)n1nc(-c3ccco3)nc21 [Compound A79b, (R)-2-(5-amino-2-(furan-2-yl)-7H-pyrazolo[4,3-e][1,2,4]triazolo[1,5-c]pyrimidin-7-yl)-2-phenyl-1-(4-(4-(3-(pyrrolidin-1-yl)propoxy)phenyl)piperazin-1-yl)propan-1-one]",6.8

# Now those with a lower IC50, led by results:
row,IC50 [nM],Compound
1,4.9,"COCCOc1ccc(N2CCN(C(=O)C(C3CC3)n3cc4c(nc(N)n5nc(-c6ccco6)nc45)n3)CC2)cc1 (stereo not drawn) [Compound C16, 2-(5-amino-2-(furan-2-yl)-8H-pyrazolo[4,3-e][1,2,4]triazolo[1,5-c]pyrimidin-8-yl)-2-cyclopropyl-1-(4-(4-(2-methoxyethoxy)phenyl)piperazin-1-yl)ethan-1-one]"
2,4.1,"COCCOc1ccc(N2CCN(C(=O)C(C3CC3)n3cc4c(nc(N)n5nc(-c6ccco6)nc45)n3)CC2)cc1 (single isomer, unassigned) [Compound C16a]"
3,4,"Nc1nc2c(cnn2C(C(=O)N2CCc3ccncc3C2)c2ccccc2)c2nc(-c3ccco3)nn12 (stereo not drawn) [Compound B8, 2-(5-amino-2-(furan-2-yl)-7H-pyrazolo[4,3-e][1,2,4]triazolo[1,5-c]pyrimidin-7-yl)-1-(3,4-dihydro-2,7-naphthyridin-2(1H)-yl)-2-phenylethan-1-one]"
4,2.3,"COCCOc1ccc(N2CCN(C(=O)C(c3ccccc3)n3ncc4c3nc(N)n3nc(-c5ccco5)nc43)CC2)cc1F (stereo not drawn) [Compound A55, 2-(5-amino-2-(furan-2-yl)-7H-pyrazolo[4,3-e][1,2,4]triazolo[1,5-c]pyrimidin-7-yl)-1-(4-(3-fluoro-4-(2-methoxyethoxy)phenyl)piperazin-1-yl)-2-phenylethan-1-one]"
5,2.2,"COCCOc1ccc(N2CCN(C(=O)[C@@](C)(c3ccccc3)n3ncc4c3nc(N)n3nc(-c5ccco5)nc43)CC2)c(F)c1 [Compound A64b, (R)-2-(5-amino-2-(furan-2-yl)-7H-pyrazolo[4,3-e][1,2,4]triazolo[1,5-c]pyrimidin-7-yl)-1-(4-(2-fluoro-4-(2-methoxyethoxy)phenyl)piperazin-1-yl)-2-phenylpropan-1-one]"
6,0.6,"COCCOc1ccc(N2CCN(C(=O)C(C)(c3ccccc3OC)n3ncc4c3nc(N)n3nc(-c5ccco5)nc43)CC2)cc1 (stereo not drawn) [Compound A93, 2-(5-amino-2-(furan-2-yl)-7H-pyrazolo[4,3-e][1,2,4]triazolo[1,5-c]pyrimidin-7-yl)-1-(4-(4-(2-methoxyethoxy)phenyl)piperazin-1-yl)-2-(2-methoxyphenyl)propan-1-one]"
7,0.6,"COCCOc1ccc(N2CCN(C(=O)C(c3ccccc3OC)n3ncc4c3nc(N)n3nc(-c5ccco5)nc43)CC2)cc1 (stereo not drawn) [Compound A31, 2-(5-amino-2-(furan-2-yl)-7H-pyrazolo[4,3-e][1,2,4]triazolo[1,5-c]pyrimidin-7-yl)-1-(4-(4-(2-methoxyethoxy)phenyl)piperazin-1-yl)-2-(2-methoxyphenyl)ethan-1-one]"
8,0.5,"COCCOc1ccc(N2CCN(C(=O)C(c3ccccc3)n3ncc4c3nc(N)n3nc(-c5ccco5)nc43)CC2)c(F)c1 (single isomer, unassigned) [Compound A44b]"
